Results taken from patent US20150050373A1, “HERBAL COMPOSITION FOR THE TREATMENT OF METABOLIC DISORDERS” (PIRAMAL ENTERPRISES LIMITED, priority 2012, published 2015).

Columns and labels:
[1] = biological target: T1, human DGAT-1 enzyme over expressed in Sf9 cell-line (Homo sapiens, UniProt O75907); test: hDGAT-1 assay (inhibition of [14C]triglyceride formation by microsomes); type: biochemical
T1 construct: hDGAT-1 ORF expression clone (RZPD0839C09146 in pDEST vector) was obtained from RZPD, Germany; made in house; host or cells: Sf9 insect cells (baculovirus, Bac-to-Bac); microsomal fraction
T1 sequence (O75907 1-488): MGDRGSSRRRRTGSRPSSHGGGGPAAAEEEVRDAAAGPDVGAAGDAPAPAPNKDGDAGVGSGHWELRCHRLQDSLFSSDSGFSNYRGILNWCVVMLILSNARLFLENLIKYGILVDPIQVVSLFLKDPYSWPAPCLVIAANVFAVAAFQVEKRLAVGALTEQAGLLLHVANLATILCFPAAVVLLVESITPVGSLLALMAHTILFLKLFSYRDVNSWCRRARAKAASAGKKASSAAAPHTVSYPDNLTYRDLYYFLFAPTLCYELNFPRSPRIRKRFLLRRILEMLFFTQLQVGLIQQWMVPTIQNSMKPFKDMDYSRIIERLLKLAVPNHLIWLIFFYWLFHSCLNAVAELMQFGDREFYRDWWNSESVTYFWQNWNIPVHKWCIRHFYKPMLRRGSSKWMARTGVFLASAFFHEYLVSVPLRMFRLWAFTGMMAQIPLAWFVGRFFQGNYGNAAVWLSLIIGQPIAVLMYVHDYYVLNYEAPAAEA
Protocol: The DGAT-1 assay was designed using human DGAT-1 enzyme over expressed in Sf9 cell-line as described in the reference, European Journal of Pharmacology, 650, 663-672, (2011), the disclosure of which is incorporated by reference for the teaching of the assay.
hDGAT-1 Enzyme preparation: Enzyme was diluted to a working concentration of 1 mg/mL in hDGAT-1 assay buffer, 2.5 μL of the working enzyme stock was used in hDGAT-1 assay (final concentration 25 μg/mL).
The test samples were prepared as follows. A stock solution of 20 mg/mL was prepared for each extract (Extract of Example 1 to Extract of Example 7) in 100% dimethyl sulfoxide (DMSO). The working stock was prepared in hDGAT-1 assay buffer. […]
Three different concentrations for dose response (i.e. 25 μg/mL, 50 μ/mL and 100 μg/mL) were prepared for Extract of Example 1 by serial dilution of stock solution.
60 μL of substrate mix (as described above) was added to a total assay volume of 100 μL. The reaction was started by adding 2.5 μg hDGAT-1 containing microsomal protein and was incubated at 37° C. for 10 min. The reaction was stopped by adding 300 μL of alkaline ethanol stop solution mix (AESSM). The reaction involves the incorporation of radioactive [^14C] oleoyl-CoA into the third hydroxyl group (OH) of 1,2-dioleoyl-sn-glycerol to form the radioactive triglyceride ([^14C] triglyceride) which was then extracted into the upper heptane phase. The radioactive triglyceride product thus formed was separated into the organic phase by adding 600 μL of n-heptane. 250 μL of the upper heptane was added into 4 mL of scintillation fluid and measured using a liquid scintillation counter (Packard; 1600CA) as disintegration per min (dpm) counts. The percentage inhibition was calculated with respect to the vehicle. […]

[2] = tested on: high fat diet (HFD) induced obesity model; test: High fat diet (HFD)-induced body weight gain study in mice; type: in vivo; conditions: Mean ± S.E.M.
Protocol: A HFD induced body weight gain study in mice was conducted to evaluate the efficacy of the Extract of Example 1.
Male C57BL/6J mice (in-house; Central Animal Facility, Piramal Healthcare Limited, Goregaon, Mumbai, Maharashtra, India) were acclimatized with HFD (60% Kcal, D12492, Research Diets, USA) for two weeks.
A suspension of Extract of Example 1 was prepared in polyethyleneglycol 400 (30%) (PEG 400, Fisher Scientific, India) and 0.5% carboxy methylcellulose (70%) (CMC, Sigma, USA).
The Extract of Example 1 was administered at a dose of 500 mg/kg body-weight orally, once daily. Orlistat (Biocon, India) was used as the standard drug and was administered orally at a dose of 15 mg/kg body weight, twice daily. A separate group of ten mice was fed a low fat diet (LED, 10% kcal, D12450B, Research Diet, USA) as a normal control. Vehicle was administered to the HFD and LFD control groups at dose of 10 mL/kg body weight.
The treatments were continued for a period of sixty days. Body weight and feed intake were monitored daily. The % change in body weight (% increase in body weight from day 1) and the cumulative feed intake data was calculated. On day sixtyone, blood samples (˜200 μL/mice) were collected in heparinised (50 IU/mL) micro-centrifuge tubes under isoflurane anesthesia. Plasma was separated by centrifugation at 10000 rpm at 4° C. for estimation of various plasma biochemistry parameters. The biochemistry analysis was performed on BS-400 autoanalyzer (Mindray, China). Subsequently, the mice were sacrificed and following organs/tissues were dissected out and weighed viz., liver, heart, kidneys, epididymal fat and retroperitoneal fat. All the data was analyzed for statistical significance by one-way ANOVA followed by Dunnet's post-hoc test and values of P<0.05 were considered as significant. All analyses were carried out using GraphPad Prism version 4.00 for Windows (GraphPad Software, San Diego, Calif., USA).

[3] = HFD-fed mice after 60 days treatment, Extract 500 mg/kg once daily, Orlistat 15 mg/kg twice daily, oral
[4] = HFD-fed mice, Day 60, Extract 500 mg/kg orally once daily, Orlistat 15 mg/kg orally twice daily

Row | Structure (SMILES) | % inhibition of hDGAT-1 ([1]; Table 1, 20 nM) [%] | % inhibition of hDGAT-1 ([1]; Table 1, 0.1 μM) [%] | % inhibition of hDGAT-1 ([1]; Table 2, 20 nM) [%] | % inhibition of hDGAT-1 ([1]; Table 2, 0.1 μM) [%] | Body Weight (g) (Day 0) ([2]; HFD-fed male C57BL/6J mice, baseline Day 0) | Epididymal Fat [2, 3] [g] | Retroperitoneal Fat [2, 3] [g] | % Change in body weight ([2]; HFD-fed mice, % increase in body weight from day 1, 60 days, Extract 500 mg/kg orally once daily, Orlistat 15 mg/kg orally twice daily) [%] | Body Weight (g) (Day 60) [2, 4] | Cumulative Feed intake (g/mice) (Day 60) [2, 4] | Total Fat ([2]; Total fat = Epididymal fat + Retroperitoneal fat, HFD-fed mice after 60 days treatment) [g]
1 | CC1(C)Oc2ncncc2N=C1c1ccc([C@H]2CC[C@@H](CC(=O)O)CC2)cc1 [IN5530, 2-((1s,4s)-4-(4-(7,7-dimethyl-7H-pyrimido [4,5-b][1,4]oxazin-6-yl)phenyl)cyclohexyl)acetic acid] | 46.27 | 66.04 | 48.82 | 74.26 | – | – | – | – | – | – | –
2 | CCCCCCCCCCC[C@@H](C[C@@H]1OC(=O)[C@H]1CCCCCC)OC(=O)[C@H](CC(C)C)NC=O [Orlistat] | – | – | – | – | 26.4 ± 0.4 | 1.07 ± 0.10 | 0.42 ± 0.05 | 16.74 ± 2.70 | 30.9 ± 0.9 | 119.7 ± 4.7 | 1.49 ± 0.15
